The values below come from PMC9007462 (Journal of Medicinal Chemistry, 2022).

The subject of one experiment is LNCaP. The experiment can be described thus: MTT chemosensitivity assay, LNCaP. The experiment is classed as cell-based, human. Conditions: 96 h exposure, ± SD, at least three independent experiments. How it is done:
(§1) MTT (3-(4, 5-dimethyl-2-thiazolyl)-2, 5-diphenyl-2H-tetrazolium bromide) assay was used to determine cell viability.[64] Immortalized PCa cells (PC-3, Du-145, and LNCaP) were seeded in 96-well plates and allowed to adhere overnight at 37 °C, 5% CO2, and 100% humidity. […] After 96 h of exposure, 200 μL of MTT (Sigma) solution (0.5 mg/mL) was added to each well and incubated at 37 °C for 4 h. The formazan crystals were dissolved in DMSO (Sigma), and the absorbance was read using a microplate reader (Multiskan EX; Thermo Fisher Scientific) at 540 nm. Data analysis was performed using Microsoft Excel 2013 and GraphPad Prism software.
Background: Formazan colour is commonly taken as a measure of viable cells.

Experiment [1] concerns the target T1, Human ALDH3A1 (Homo sapiens, UniProt P30838).
T1 construct: made in house
T1 sequence (P30838 1-453): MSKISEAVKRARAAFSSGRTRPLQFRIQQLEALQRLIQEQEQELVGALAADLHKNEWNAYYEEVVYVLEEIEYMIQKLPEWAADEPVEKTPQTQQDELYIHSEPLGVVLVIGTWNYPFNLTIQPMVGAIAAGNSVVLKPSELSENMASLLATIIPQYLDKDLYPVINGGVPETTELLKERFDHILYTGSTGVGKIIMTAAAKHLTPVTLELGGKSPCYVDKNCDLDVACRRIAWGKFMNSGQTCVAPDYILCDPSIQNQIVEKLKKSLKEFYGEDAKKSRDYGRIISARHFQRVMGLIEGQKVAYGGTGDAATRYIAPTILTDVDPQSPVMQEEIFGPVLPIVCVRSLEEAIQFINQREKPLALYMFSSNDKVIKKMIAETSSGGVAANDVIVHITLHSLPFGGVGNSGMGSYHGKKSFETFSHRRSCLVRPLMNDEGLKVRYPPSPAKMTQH
The experiment can be described thus: DEAB analogues as substrates of ALDH3A1 (substrate activity and kinetics). In kind it is biochemical. How it is done: (§2) Human ALDH1A1, ALDH1A3, and ALDH3A1 were cloned and recombinantly expressed from the pET-30 Xa/LIC vector. Protein purification was achieved by affinity chromatography on a nickel-charged chelating Sepharose Fast Flow 5-mL column (His Trap column, Cytiva), which specifically binds the protein due to its N-terminal (His)6 tag, using an ÄKTA FPLC system (Cytiva), as previously described.[55] Enzymes including the His tag were stored at −80 °C in 20 mM Tris/HCl and 0.5 M NaCl, pH 8.0, until use. Reaction buffers were as follows: ALDH1A1 was assayed in 50 mM HEPES, 0.5 mM EDTA, and 0.5 mM DTT, pH 8.0; ALDH1A3 was assayed in 50 mM HEPES, 30 mM MgCl2, and 5 mM DTT, pH 8.0; and ALDH3A1 was assayed in 50 mM Tris–HCl and 5 mM DTT, pH 8.0. Activity under standard conditions was measured fluorimetrically at 25 °C using a Cary Eclipse (Varian) fluorimeter to follow the purification procedure and to check the enzyme concentration before each kinetic experiment. The fluorescence of NADH was characterized at 460 nm with excitation at 340 nm, and 5 μM NAD(P)H was added as an internal standard to obtain the absolute reaction rates.[55] Standard activity was measured at saturating concentrations of substrate using 30 μM hexanal (ALDH1A1), 250 μM hexanal (ALDH1A3), or 250 μM 4-NBA (ALDH3A1). NAD^+ was 500 μM for ALDH1A1 and ALDH1A3, and NADP^+ was 1 mM for ALDH3A1.
According to their structure with a carbonyl group, compounds were tested for their substrate properties against ALDH1A1, ALDH1A3, and ALDH3A1. […] Results are expressed as the percentage of activity at 10 μM versus the activity at 10 μM of their standard substrate (hexanal or 4-NBA). Values are expressed as the mean ± SE.
To calculate the Km value of compound 18 as a substrate for ALDH3A1, several concentrations of compound 18 were used. Experimental values were fitted to the adaptation of the Michaelis–Menten equation for substrate inhibition [drawing 1] and shown as the mean ± SE.

Another experiment deals with DU145. Description: MTT chemosensitivity assay, DU145. In kind it is cell-based, human. Particulars: ± SD, at least three independent experiments. How it is done: as §1
The next experiment relates to PC3. Description: MTT chemosensitivity assay, PC3. Conditions: ± SD, at least three independent experiments. In kind it is cell-based, human. How it is done: as §1
The target of the next experiment is T2, Human ALDH1A3 (Homo sapiens, UniProt P47895).
T2 construct: made in house
T2 sequence (P47895 1-512): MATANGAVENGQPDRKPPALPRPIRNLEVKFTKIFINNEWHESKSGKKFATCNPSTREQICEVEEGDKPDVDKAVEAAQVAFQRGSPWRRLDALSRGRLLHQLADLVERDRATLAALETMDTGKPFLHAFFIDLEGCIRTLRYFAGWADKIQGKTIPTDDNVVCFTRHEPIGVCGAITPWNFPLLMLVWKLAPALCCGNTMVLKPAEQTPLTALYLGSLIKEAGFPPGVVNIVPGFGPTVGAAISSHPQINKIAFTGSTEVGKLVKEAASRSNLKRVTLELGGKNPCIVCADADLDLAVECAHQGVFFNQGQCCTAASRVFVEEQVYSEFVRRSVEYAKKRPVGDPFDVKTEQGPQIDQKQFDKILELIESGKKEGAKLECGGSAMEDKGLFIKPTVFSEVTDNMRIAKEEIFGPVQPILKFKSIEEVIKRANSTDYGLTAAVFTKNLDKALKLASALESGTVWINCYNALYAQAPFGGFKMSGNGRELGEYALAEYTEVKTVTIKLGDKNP
The experiment can be described thus: ALDH1A3 inhibition, IC50, Ki and type of inhibition. In kind it is biochemical. Conditions: for IC50: 6 μM hexanal as substrate; for IC50 / Ki: mean ± SE; for type of inhibition ALDH1A3 / Ki: hexanal as substrate; for Ki: fit to competitive inhibition equation. On the procedure: Human ALDH1A1, ALDH1A3, and ALDH3A1 were cloned and recombinantly expressed from the pET-30 Xa/LIC vector. Protein purification was achieved by affinity chromatography on a nickel-charged chelating Sepharose Fast Flow 5-mL column (His Trap column, Cytiva), which specifically binds the protein due to its N-terminal (His)6 tag, using an ÄKTA FPLC system (Cytiva), as previously described.[55] Enzymes including the His tag were stored at −80 °C in 20 mM Tris/HCl and 0.5 M NaCl, pH 8.0, until use. Reaction buffers were as follows: ALDH1A1 was assayed in 50 mM HEPES, 0.5 mM EDTA, and 0.5 mM DTT, pH 8.0; […] Activity under standard conditions was measured fluorimetrically at 25 °C using a Cary Eclipse (Varian) fluorimeter to follow the purification procedure and to check the enzyme concentration before each kinetic experiment. […] In order to determine the IC50 values, reaction rates were determined at various concentrations of inhibitor at a fixed concentration of substrate. […] Values are expressed as the mean ± SE. […] The data of enzymatic activities at different inhibitor concentrations were fitted to the Michaelis–Menten equation to determine the values of Km and Vmax. Next, results were fitted to the equations for competitive, given by [drawing 3]; noncompetitive, given by [drawing 4]; uncompetitive, given by [drawing 5]; and mixed, given by [drawing 6] .[56] The type of inhibition was selected based on the lowest error value. Parameters were expressed as the mean ± SE.

Experiment [2] concerns the target T1, Human ALDH3A1. Description: ALDH3A1 inhibition, IC50, Ki and type of inhibition. The experiment is classed as biochemical. Conditions: 31 μM 4-NBA as substrate; mean ± SE. How it is done:
as §2
In order to determine the IC50 values, reaction rates were determined at various concentrations of inhibitor at a fixed concentration of substrate. As substrates for ALDH1A1, ALDH1A3, and ALDH3A1, 5 μM hexanal, 6 μM hexanal, and 31 μM 4-NBA, respectively, were used. The IC50 values were calculated by nonlinear fitting of the obtained data to a sigmoidal plot using GraFit 5.0 (Erithacus software), with the following 4-parameter equation [drawing 2] , where y is the specific activity, x is the inhibitor concentration, background is the minimum y value, range is the fitted uninhibited value minus the background, and s is the slope factor. Values are expressed as the mean ± SE.
Activity assays to determine the type of inhibition and Ki value were performed using various substrate and inhibitor concentrations maintaining the same conditions as for the IC50 experiments and using GraFit 5.0 for data processing. The data of enzymatic activities at different inhibitor concentrations were fitted to the Michaelis–Menten equation to determine the values of Km and Vmax. Next, results were fitted to the equations for competitive, given by [drawing 3]; noncompetitive, given by [drawing 4]; uncompetitive, given by [drawing 5]; and mixed, given by [drawing 6] .[56] The type of inhibition was selected based on the lowest error value. Parameters were expressed as the mean ± SE.

[3] abbreviates: Homo sapiens, DU-145, 96 h exposure.
[4] abbreviates: Homo sapiens, PC-3, 96 h exposure.

Regarding `CC(C)Oc1ccc(C=O)cc1` [Compound 16, 4-Isopropoxybenzaldehyde], the IC50 was more than 200 µM with LNCaP (Homo sapiens, LNCaP); more than 200 µM in the experiment with DU145 (setting [3]); more than 200 µM in the experiment on PC3 (setting [4]); 0.26 ± 0.01 µM at Human ALDH1A3. For the same compound, at Human ALDH3A1 [1] (10 μM compound as substrate, relative to activity with 10 μM 4-NBA (Figure S2)), the ALDH3A1 substrate activity entry was “good ALDH3A1 substrate”. In addition, at Human ALDH1A3, the “type of inhibition ALDH1A3” value is listed as “competitive”. At Human ALDH1A3, the Ki was less than 1 µM.
On to `O=Cc1ccc(N2CCCCC2)c(Cl)c1` [Compound 8, 3-Chloro-4-(piperidin-1-yl)benzaldehyde], for which the IC50 in the experiment on LNCaP (Homo sapiens, LNCaP) is 37 ± 1.4 µM; in the experiment on DU145 (setting [3]), 110 ± 3 µM; in the experiment with PC3 (setting [4]) it was 130 ± 9 µM.
Regarding `O=Cc1ccc(N2CCOCC2)c(Br)c1` [Compound 22, 3-Bromo-4-morpholinobenzaldehyde], the IC50 in the experiment on LNCaP (Homo sapiens, LNCaP) came to 82 ± 10 µM; in the experiment on DU145 (setting [3]), 155 ± 32 µM; in the experiment on PC3 (setting [4]), 196 ± 4 µM.
Turning to `Cc1cc(C=O)ccc1N1CCCCC1` [Compound 15, 3-Methyl-4-(piperidin-1-yl)benzaldehyde], the IC50 in the experiment on LNCaP (Homo sapiens, LNCaP) is 61 ± 14 µM; in the experiment with DU145 (setting [3]) it was 106 ± 13 µM; with PC3 (setting [4]) it was 123 ± 29 µM; on Human ALDH1A3 it was 0.3 ± 0.07 µM. The “type of inhibition ALDH1A3” value on Human ALDH1A3 is “competitive”. Also, the Ki at Human ALDH1A3 is less than 1 µM.
With `O=Cc1ccc(N2CCCCC2)c(Br)c1` [Compound 23, 3-Bromo-4-(piperidin-1-yl)benzaldehyde], the IC50 with LNCaP (Homo sapiens, LNCaP) is 46 ± 10 µM; with DU145 (setting [3]), 84 ± 12 µM; in the experiment on PC3 (setting [4]), 84 ± 6 µM.
For `O=Cc1ccc(-n2ccnc2)cc1` [Compound 6, 4-(1H-Imidazole-1-yl)benzaldehyde] the same measures were 137 ± 14 µM, 133 ± 11 µM and 172 ± 30 µM.
For `CN1CCN(c2ccc(C=O)cc2Br)CC1` [Compound 21, 3-Bromo-4-(4-methylpiperazin-1-yl)benzaldehyde] the same measures were 179 ± 14 µM, 187 ± 14 µM and more than 200 µM.
For the compound `O=Cc1ccc([N+](=O)[O-])cc1` [Compound 4-NBA, 4-Nitrobenzaldehyde, reference compound], at Human ALDH3A1 [1] (mean ± SE), the Km turned out to be 31 ± 4.9 µM and the “kcat as ALDH3A1 substrate” value worked out at 359 ± 14 min^–1. Moreover, the “Km fold higher than compound 18 (ALDH3A1 substrate)” value on Human ALDH3A1 [1] (ratio of Km values) is on record as 10 fold. Besides, the “turnover number (kcat) fold higher than compound 18 (ALDH3A1)” value at Human ALDH3A1 [1] (ratio of kcat values) was found to be 26 fold.
As to `O=Cc1ccc(N2CCCC2)c([N+](=O)[O-])c1` [Compound 34, 3-Nitro-4-(pyrrolidin-1-yl)benzaldehyde], on Human ALDH1A3, the IC50 is 0.27 ± 0.03 µM.
Regarding “4-(Dipropylamino)-3-methoxybenzaldehyde [Compound 17]”, the IC50 in the experiment on LNCaP was 61 ± 18 µM; in the experiment on DU145 (96 h exposure), 103 ± 4 µM; with PC3 (96 h exposure) it was 106 ± 25 µM.
Consider “4-(Dipropylamino)-2-methoxybenzaldehyde [Compound 38]”, for which the IC50 in the experiment on LNCaP was determined as 50 ± 3 µM; with DU145 (96 h exposure), 71 ± 11 µM; in the experiment on PC3 (96 h exposure), 75 ± 10 µM.
In the case of `O=Cc1ccc(N2CCOCC2)c(Cl)c1` [Compound 9, 3-Chloro-4-morpholinobenzaldehyde], the IC50 on Human ALDH3A1 [2] stood at 64.1 ± 6.7 µM; on Human ALDH1A3, 2.37 ± 0.19 µM.

The term IC50 denotes the concentration needed to halve the response being measured. For orientation: Ki means the equilibrium dissociation constant of an inhibitor or competing ligand from its target. The term Km denotes the concentration of substrate that gives half-maximal velocity.
